This is an account of results in ChEMBL document CHEMBL1201862, “PubChem BioAssay data set” (2004).

Assay [1] has as its system BJ. Briefly: cytotoxicity toward BJ-TERT fibroblasts, dose response, cell-based, RAS-independent, luminescence (AID 1933). Particulars: Homo sapiens. The format is functional.
In assay [2] the test system is BJ. Briefly: cells. Type of assay: functional, cell-based. Particulars: Homo sapiens.
In assay [3] the test system is BJ. Briefly: cytotoxicity toward BJ-TERT-LT-ST fibroblasts, dose response, cell-based, RAS-independent, luminescence (AID 1935).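 Also: BJ fibroblasts immortalized with TERT plus LT and ST oncogenes.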 The format is functional. Particulars: Homo sapiens.
Assay [4] can be described thus: cytotoxicity toward DRD oncogenic fibroblasts, dose response, cell-based, non-viral oncogenic, luminescence (AID 1934). Type of assay: functional. Conditions: Homo sapiens.
Assay [5] deals with T1, Replicative DNA helicase DnaB (Mycobacterium tuberculosis, UniProt P9WMR3).
T1 sequence (P9WMR3 whole entry): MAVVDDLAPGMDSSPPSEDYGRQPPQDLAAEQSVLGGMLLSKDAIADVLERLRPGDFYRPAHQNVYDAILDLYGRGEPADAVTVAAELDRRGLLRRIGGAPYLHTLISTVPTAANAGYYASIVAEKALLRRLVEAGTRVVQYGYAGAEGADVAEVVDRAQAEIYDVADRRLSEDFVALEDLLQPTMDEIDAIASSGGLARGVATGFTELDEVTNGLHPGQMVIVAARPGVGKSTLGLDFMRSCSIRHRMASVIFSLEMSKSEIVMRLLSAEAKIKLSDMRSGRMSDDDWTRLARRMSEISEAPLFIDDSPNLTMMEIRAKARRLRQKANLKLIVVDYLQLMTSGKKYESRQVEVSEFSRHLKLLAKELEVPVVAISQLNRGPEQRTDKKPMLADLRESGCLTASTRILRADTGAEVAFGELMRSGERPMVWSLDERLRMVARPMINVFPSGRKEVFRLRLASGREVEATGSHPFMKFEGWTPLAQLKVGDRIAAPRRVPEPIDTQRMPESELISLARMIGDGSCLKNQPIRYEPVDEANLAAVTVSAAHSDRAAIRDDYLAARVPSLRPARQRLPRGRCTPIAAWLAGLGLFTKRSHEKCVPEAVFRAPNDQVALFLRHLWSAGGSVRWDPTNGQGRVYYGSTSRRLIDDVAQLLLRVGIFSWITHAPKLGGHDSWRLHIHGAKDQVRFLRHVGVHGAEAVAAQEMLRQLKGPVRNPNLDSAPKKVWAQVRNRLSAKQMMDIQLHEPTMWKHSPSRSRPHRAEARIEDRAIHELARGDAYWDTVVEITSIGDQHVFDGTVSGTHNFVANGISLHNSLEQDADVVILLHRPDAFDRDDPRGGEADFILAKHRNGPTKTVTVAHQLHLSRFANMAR
Briefly: DnaB intein splicing inhibitors, dose response, biochemical, cell-free fluorescence (AID 449749). The format is functional.

Assay [6] concerns BJ. Briefly: cytotoxicity toward Ras-transformed BJeLR fibroblasts, dose response, cell-based, alamar blue fluorescence, cherrypicked samples (AID 2631).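 Also: confirmatory dose-response assay in RAS-dependent BJ fibroblasts engineered with TERT, LT and ST, with cytotoxicity read by fluorescence.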 Type of assay: functional. Conditions: Homo sapiens. (Alamar Blue is a resazurin reagent that responds to reducing activity.)
The target of assay [7] is T2, Protein RecA (Mycobacterium tuberculosis, UniProt P9WHJ3).
T2 sequence (P9WHJ3 whole entry): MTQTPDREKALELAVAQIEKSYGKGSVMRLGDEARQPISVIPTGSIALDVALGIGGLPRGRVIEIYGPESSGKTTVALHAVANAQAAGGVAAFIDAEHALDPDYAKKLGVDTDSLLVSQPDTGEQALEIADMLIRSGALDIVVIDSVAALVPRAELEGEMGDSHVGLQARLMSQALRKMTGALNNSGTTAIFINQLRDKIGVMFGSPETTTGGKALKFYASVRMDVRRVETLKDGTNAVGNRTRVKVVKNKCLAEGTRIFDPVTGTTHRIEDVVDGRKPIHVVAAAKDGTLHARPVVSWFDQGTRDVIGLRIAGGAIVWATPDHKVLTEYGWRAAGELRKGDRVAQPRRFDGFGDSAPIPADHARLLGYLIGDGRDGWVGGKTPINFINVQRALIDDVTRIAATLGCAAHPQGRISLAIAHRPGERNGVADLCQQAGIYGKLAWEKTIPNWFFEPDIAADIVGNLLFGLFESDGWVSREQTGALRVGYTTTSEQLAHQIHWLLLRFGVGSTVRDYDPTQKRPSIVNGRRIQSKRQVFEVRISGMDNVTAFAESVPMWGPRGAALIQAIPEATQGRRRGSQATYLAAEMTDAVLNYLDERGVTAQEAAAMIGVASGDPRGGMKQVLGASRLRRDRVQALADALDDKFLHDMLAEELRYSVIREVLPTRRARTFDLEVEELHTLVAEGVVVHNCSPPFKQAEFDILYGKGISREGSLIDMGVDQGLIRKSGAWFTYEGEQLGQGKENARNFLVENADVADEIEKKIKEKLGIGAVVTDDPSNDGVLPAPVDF
Briefly: Fluorescence Cell-Free Homogeneous Dose Retest to Identify Inhibitors of RecA-Intein Splicing Activity. [Related pubchem assays (depositor defined):AID2097, AID2223, AID489010, AID492950]. Type of assay: functional.

The nature of assay [8]: Shn3 3'UTR reporter inhibitors, dose response, cell-based, Clone20 osteoblasts, firefly luciferase, cherry-picked (AID 624132).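 Also: firefly luciferase luminescence from reporter carrying the Shn3 3'UTR in osteoblasts.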 Type of assay: functional.
Assay [9] addresses Protein disulfide-isomerase (Homo sapiens, UniProt P07237). Briefly: PDI inhibitors, insulin aggregation turbidity, dose response, biochemical, absorbance, cherry-picked samples (AID 602350). Type of assay: functional.
Assay [10] deals with T3, Probable nicotinate-nucleotide adenylyltransferase (Staphylococcus aureus (strain N315), UniProt P65502). The format is functional, Staphylococcus aureus subsp. aureus N315.
Assay [11] addresses T3, Probable nicotinate-nucleotide adenylyltransferase. Type of assay: functional, Staphylococcus aureus subsp. aureus N315. Conditions: read-out: IC50_Mean.
The target in assay [12] is T4, Exodeoxyribonuclease V (Escherichia coli (strain K12), UniProt P04993+P07648+P08394).
T4 sequence (P04993 whole entry): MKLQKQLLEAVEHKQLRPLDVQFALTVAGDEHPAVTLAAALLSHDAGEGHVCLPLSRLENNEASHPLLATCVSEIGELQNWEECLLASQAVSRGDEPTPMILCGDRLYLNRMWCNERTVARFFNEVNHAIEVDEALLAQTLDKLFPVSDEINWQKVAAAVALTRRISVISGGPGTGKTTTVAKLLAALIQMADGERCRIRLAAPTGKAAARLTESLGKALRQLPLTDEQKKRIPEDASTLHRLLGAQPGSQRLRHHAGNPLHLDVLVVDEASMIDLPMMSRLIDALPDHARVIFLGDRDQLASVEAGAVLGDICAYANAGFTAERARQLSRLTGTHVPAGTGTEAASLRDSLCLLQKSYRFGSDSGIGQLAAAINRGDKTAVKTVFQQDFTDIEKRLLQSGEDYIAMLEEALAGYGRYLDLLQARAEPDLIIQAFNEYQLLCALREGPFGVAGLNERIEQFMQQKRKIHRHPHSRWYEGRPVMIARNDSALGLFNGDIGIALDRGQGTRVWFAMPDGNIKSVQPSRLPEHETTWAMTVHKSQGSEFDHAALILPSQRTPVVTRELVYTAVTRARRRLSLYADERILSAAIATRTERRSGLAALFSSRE
T4 sequence (P07648 whole entry): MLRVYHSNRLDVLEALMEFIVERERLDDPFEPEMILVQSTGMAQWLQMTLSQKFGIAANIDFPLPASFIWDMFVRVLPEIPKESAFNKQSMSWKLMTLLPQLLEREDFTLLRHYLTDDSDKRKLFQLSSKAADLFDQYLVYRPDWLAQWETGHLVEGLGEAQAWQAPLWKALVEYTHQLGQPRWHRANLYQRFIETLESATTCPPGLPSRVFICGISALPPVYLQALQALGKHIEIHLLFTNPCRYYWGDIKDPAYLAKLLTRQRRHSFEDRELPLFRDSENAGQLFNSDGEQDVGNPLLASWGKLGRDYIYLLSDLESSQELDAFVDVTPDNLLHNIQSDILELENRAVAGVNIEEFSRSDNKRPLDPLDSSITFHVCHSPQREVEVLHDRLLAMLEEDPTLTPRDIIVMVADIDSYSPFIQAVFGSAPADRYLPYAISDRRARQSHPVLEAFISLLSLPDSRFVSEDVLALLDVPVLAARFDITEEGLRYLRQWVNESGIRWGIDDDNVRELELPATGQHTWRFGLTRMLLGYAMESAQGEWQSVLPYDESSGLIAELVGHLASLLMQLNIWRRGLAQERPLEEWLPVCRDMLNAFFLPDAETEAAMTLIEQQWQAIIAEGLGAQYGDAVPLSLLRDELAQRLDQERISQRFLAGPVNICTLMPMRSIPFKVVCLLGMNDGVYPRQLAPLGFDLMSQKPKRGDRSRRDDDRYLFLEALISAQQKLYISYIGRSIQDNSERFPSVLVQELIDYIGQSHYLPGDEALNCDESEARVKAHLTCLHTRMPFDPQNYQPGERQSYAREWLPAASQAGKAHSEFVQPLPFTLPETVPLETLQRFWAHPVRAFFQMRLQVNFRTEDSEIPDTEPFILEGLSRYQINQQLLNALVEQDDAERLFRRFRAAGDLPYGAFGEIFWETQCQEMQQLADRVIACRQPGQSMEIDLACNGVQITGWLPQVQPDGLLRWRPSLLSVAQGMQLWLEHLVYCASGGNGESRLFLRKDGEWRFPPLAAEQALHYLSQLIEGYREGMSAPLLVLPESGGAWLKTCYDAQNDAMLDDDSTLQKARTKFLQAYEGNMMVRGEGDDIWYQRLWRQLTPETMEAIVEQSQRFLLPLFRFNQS
T4 sequence (P08394 whole entry): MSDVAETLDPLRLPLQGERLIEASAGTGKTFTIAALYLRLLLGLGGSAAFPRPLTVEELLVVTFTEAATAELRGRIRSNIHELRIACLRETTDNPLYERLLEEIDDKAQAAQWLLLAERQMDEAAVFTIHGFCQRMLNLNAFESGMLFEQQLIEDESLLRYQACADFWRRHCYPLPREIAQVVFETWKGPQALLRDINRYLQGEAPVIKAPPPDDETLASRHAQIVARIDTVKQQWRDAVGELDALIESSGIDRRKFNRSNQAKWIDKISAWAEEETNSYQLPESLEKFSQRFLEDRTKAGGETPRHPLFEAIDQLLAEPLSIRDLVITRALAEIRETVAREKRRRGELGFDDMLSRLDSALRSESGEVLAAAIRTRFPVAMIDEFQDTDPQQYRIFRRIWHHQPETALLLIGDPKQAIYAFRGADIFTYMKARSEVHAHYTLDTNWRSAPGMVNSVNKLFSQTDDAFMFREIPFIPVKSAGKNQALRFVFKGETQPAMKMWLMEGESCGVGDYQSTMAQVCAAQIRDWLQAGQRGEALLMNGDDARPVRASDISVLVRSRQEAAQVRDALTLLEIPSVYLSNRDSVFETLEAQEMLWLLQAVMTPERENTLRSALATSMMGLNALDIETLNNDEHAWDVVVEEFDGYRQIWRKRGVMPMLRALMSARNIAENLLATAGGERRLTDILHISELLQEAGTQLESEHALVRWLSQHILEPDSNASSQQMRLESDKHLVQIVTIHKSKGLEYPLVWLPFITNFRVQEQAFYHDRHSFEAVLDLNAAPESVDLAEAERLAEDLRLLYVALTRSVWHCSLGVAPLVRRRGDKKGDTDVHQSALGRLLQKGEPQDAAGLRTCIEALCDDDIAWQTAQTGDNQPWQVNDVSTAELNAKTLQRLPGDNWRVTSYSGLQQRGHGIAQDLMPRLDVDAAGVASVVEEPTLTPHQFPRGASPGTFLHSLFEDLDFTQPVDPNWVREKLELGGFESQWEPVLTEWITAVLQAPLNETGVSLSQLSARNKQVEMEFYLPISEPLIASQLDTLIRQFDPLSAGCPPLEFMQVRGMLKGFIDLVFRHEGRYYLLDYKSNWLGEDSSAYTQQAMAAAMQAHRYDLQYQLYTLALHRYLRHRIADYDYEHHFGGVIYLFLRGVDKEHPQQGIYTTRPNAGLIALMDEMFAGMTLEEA
Briefly: E. coli RecBCD inhibitors, dose response, counter-screen for AddAB inhibitor project, absorbance, V66 E. coli, mutant T4 phage (AID 492957). Type of assay: functional, cell-based, Escherichia coli str. K-12 substr. MG1655.

Assay [13] in a line: Counterscreen for AddAB inhibitors: absorbance-based bacterial cell-based high throughput dose response assay for inhibitors of bacterial viability. [Related pubchem assays (depositor defined):AID435030, AID449728, AID449731, AID488942, AID488955, AID488956]. The format is functional. On the technique in general: Counterscreens check selectivity or assay interference.
The nature of assay [14]: HepG2 cell cytotoxicity, dose response, cytotoxicity control for Shn3 inhibitor project, CellTiter-Glo, cherry-picked (AID 624134). The format is functional, cell-based.
The target in assay [15] is Photoreceptor-specific nuclear receptor (Homo sapiens, UniProt Q9Y5X4). The format is functional, cell-based.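 Also: CHO-S cells with Gal4-NCOR and VP16-NR2E3 two-hybrid luciferase reporter.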

The source made the active and inactive calls.
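For IC50 Mean in this document: confirmatory dose-response retesting of NadD inhibitor hits first found in an ultra-high-throughput screen.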

Sequence of Protein disulfide-isomerase (P07237 whole entry): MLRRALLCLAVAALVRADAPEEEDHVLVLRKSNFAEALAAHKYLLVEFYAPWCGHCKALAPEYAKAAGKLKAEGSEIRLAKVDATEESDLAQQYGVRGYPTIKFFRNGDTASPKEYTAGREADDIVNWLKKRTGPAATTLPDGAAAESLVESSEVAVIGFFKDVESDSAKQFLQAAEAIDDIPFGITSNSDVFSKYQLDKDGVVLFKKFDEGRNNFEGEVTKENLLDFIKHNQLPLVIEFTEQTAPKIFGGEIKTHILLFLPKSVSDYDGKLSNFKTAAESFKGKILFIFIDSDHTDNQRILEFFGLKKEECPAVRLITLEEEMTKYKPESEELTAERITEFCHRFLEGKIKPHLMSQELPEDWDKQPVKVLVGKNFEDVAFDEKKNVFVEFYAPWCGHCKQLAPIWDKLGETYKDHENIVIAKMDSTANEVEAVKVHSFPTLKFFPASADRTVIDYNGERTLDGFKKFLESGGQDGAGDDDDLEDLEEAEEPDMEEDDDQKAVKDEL
T3 sequence (P65502 whole entry): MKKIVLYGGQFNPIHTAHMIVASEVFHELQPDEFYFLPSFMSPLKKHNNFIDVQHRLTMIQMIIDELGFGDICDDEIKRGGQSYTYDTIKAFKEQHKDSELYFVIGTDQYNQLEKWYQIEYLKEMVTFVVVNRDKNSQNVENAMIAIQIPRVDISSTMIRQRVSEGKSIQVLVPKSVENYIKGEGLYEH
Sequence of Photoreceptor-specific nuclear receptor (Q9Y5X4 whole entry, the tested form may be a part): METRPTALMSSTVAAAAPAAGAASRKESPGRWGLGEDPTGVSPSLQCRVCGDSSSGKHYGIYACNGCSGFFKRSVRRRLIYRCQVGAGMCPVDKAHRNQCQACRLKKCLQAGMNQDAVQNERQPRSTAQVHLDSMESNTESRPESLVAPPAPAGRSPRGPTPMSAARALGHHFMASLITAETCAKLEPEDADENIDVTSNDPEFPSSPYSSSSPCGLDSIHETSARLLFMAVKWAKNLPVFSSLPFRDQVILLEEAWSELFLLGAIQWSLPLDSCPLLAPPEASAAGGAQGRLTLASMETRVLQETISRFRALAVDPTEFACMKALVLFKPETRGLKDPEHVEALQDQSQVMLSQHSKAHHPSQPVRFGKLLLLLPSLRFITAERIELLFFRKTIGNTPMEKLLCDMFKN

Usually EC50 stands for the concentration that produces a half-maximal response. Broadly, the AC50 is the midpoint of the concentration-response curve, whichever way the signal moves. As to `COc1cccc(/C=C2\SC(=S)N(CCCC(=O)N(CCO)c3ccccc3)C2=O)c1`, the EC50 is 3.1 µM (inconclusive) in [1]; > 150 µM (not active) in assay [2]; > 75 µM (inconclusive) in assay [3]; 6.07 µM (inconclusive) in assay [4]; > 66.7 µM (inactive) in assay [6]; 7.22 µM (active) in [7]. In [5], the AC50 is 41.7 µM (active).

Consider `COc1ccc2c(CC(=O)OCC(=O)N(C)c3c(N)n(Cc4ccccc4)c(=O)[nH]c3=O)coc2c1`, for which the results for the AC50 in [8] and in assay [9] were 21.2 µM (active) and 5.45 µM (active), respectively.

Consider `Cc1ccc(NCc2nnc(SCC(=O)c3ccccc3)n2Cc2ccco2)c(C)c1`, for which the IC50 is 12.1 µM (active) in [10] and 23 µM (active) in assay [11].

Consider `c1ccc(-c2cc(CSc3nc4ccccc4[nH]3)on2)cc1`, for which the IC50 in assay [12] is > 119 µM (inactive); in assay [13], > 119 µM (inactive); in [15] it was 4.61 µM (active). Moreover, the AC50 in assay [8] was 3.76 µM (active); in assay [14] it was 58.3 µM (active).

Take `NC(=O)c1nn(-c2ccccc2)nc1NC(=O)CSc1nnnn1-c1ccc(Cl)cc1`: in assay [15], the IC50 was 2.27 µM (active).

Regarding `Cc1cc(O)cc2c1C1CCC3(C)C(=O)CCC3C1C=C2` (stereo not given), in assay [9], the AC50 is 19.5 µM (active).

Take `CCOC(=O)C1(CCOc2ccccc2)CCN(Cc2cc(OC)c(O)cc2Cl)CC1`: the AC50 in assay [9] was 6.03 µM (active).

In the case of `Cc1c(O)ccc2c(CN3CCN(C/C=C/c4ccccc4)CC3)cc(=O)oc12`, the AC50 in assay [9] was 19.5 µM (active).
